According to patent publication US11464854B2, “Methods and compositions relating to adjuvants” (Children's Medical Center Corporation, priority 2017, dated 2022):

Key:
[1] = tested on: PnPS-specific B cells; assay: Pneumococcal polysaccharide-specific B cells (ELISpot); assay type: in vivo, rhesus macaques (Macaca mulatta); conditions: control condition, adjuvant alone
Source text: Characterization of pneumococcal polysaccharide-specific B cells. Rhesus macaque peripheral blood mononuclear cells (PBMCs) were labeled with anti-CD14-PE (clone M5E2), CD20-V450 (clone L27), CD27-PE.Cy7 (clone M-T271), CD4-FITC (clone SK3) Ab's (BD Biosciences). Sorting of CD14+ monocytes, CD20+CD27− naïve B cells, CD20+CD27+ memory B cells, and CD4+Th cells employed a FACSAria™ II cell sorter. Anti-pneumococcal B cells in peripheral blood were enumerated in sorted B cell populations. […] Secreted immunoglobulins were detected using horseradish peroxidase-conjugated goat-anti-rhesus immunoglobulin (Nordic Immunological Laboratories; Eindhoven, The Netherlands). Spots were developed using 3,3′,5,5′-Tetramethylbenzidine (TMB) (Mabtech, Mariemont; OH, USA) and visualized and counted using a series 5 ELISpot™ analyzer (Cellular Technology Limited, Shaker Heights; OH, USA). The fraction of pneumococcal polysaccharide-specific B cells was quantified as the ratio of the spots detected in polysaccharide-coated wells to spots detected in immunoglobulin-coated wells, after correction for dilution.

[2] = tested on: cytokine and IFN-inducible gene expression in draining lymph nodes and spleen; assay type: in vivo, mice; conditions: mice
[3] = target: T1, human TLR8 (Homo sapiens, UniProt Q9NR97); conditions: HEK293 cells stably expressing human TLR8 (ref. 24); cited from earlier work
T1 construct: host or cells: HEK293 with NF-kB-responsive SEAP reporter
T1 sequence (Q9NR97 27-1041): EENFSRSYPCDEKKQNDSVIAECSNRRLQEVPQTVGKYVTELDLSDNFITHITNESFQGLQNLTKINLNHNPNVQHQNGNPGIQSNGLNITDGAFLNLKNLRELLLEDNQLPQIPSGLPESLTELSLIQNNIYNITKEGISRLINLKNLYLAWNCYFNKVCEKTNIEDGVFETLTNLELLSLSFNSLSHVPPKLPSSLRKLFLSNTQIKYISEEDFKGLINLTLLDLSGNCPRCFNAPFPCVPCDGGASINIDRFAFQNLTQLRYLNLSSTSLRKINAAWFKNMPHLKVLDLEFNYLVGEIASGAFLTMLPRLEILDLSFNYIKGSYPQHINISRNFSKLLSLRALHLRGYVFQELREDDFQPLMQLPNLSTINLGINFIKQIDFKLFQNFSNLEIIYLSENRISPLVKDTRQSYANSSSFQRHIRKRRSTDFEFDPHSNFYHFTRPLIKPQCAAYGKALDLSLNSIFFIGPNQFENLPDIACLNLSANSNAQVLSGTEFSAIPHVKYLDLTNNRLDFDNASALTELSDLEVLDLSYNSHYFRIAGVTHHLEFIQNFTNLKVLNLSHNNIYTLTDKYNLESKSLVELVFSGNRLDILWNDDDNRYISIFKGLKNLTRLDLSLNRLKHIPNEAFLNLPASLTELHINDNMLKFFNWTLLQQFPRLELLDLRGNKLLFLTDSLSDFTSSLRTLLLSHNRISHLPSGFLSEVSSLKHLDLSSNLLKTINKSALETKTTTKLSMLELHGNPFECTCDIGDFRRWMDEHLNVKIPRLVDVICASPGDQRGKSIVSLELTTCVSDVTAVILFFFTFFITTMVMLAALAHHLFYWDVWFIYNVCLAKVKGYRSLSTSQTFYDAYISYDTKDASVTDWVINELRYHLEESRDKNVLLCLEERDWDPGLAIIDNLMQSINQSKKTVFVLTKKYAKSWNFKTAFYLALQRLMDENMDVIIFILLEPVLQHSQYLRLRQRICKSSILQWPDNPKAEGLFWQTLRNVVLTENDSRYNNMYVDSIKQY

[4] = tested on: adult human PBMCs; assay: Adult human PBMC stimulation
[5] = Adsorption onto alum derived from DTaP vaccine (RP-HPLC); assay type: physicochemical; conditions: within 1-2 hr, all circumstances tested

CCCCCCCCCCCCCCCCCC(=O)NCCCCOn1c(CCCC)nc2c(N)nc3ccccc3c21 [3M-052, N-[4-[(4-amino-2-butyl-1H-imidazo[4,5-c]quinolin-1-yl)oxy]butyl]octadecanamide]
non-specific polysaccharide in vitro activation of B cells [1]: ≤ 1.0% | IFN-related and TLR7 gene expression in the spleens ([2]; SC administration): robust | cytokine mRNA expression ([2]; SC administration): little if any | time of peak cytokine mRNA expression ([2]; single SC dose, lymph node tissue and splenocytes): 6 h | agonist activity, human TLR8 [3]: Dual agonist activity

CCCCc1nc2c(N)nc3ccccc3c2n1CCO [CRX-649]
expression of CD123, HLA-D, CD80 and CD86 ([4]; 24 h, compared to unstimulated cells, flow cytometry): increased expression | cytokine skewing ([4]; adult PBMCs): pro-inflammatory biased | adsorption to the alum/antigen [5]: 4-7%
